Eight molecules from patent US20170362228A1, “TETRAHYDRO-PYRIDO[3,4-b]INDOLE ESTROGEN RECEPTOR MODULATORS AND USES THEREOF” (Genentech, Inc., priority 2016, published 2017) can be followed below.

For assay [1], the target named is T1, estrogen receptor alpha (ESR1) (Homo sapiens, UniProt P03372).
T1 construct: endogenous in cells; host or cells: MCF7 breast cancer cells
T1 sequence (P03372 1-595): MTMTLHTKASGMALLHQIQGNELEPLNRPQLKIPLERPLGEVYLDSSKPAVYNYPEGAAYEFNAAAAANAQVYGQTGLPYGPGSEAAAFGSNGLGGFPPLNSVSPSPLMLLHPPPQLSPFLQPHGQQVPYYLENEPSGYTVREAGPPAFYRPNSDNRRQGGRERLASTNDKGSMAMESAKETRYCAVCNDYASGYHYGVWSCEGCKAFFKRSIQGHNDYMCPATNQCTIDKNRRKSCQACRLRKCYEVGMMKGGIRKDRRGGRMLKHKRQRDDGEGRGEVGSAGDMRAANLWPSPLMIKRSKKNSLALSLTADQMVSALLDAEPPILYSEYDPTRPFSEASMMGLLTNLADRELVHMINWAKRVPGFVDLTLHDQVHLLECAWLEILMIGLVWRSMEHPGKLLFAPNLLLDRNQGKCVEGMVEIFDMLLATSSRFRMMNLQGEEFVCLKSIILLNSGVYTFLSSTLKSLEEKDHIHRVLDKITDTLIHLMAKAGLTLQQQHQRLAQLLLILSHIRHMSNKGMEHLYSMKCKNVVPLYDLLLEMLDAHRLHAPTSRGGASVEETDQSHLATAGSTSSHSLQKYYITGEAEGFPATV
Nature of the assay: Breast Cancer Cell ERa High Content Fluorescence Imaging Degradation Assay (Example 901). The class given is cell-based. To be noted: Table 1a; MCF7 breast cancer cells, 4 hours; plateau of the maximal effect; DMSO and Fulvestrant define 0% and 100% changes in ESR1. As for the experimental part:
MCF7 breast cancer cells were seeded on day 1 at a density of 10,000 cells per well in 384 well poly-lysine coated tissue culture plate (Greiner # T-3101-4), in 50 μL/well RPMI (phenol red free), 10% FBS (Charcoal stripped), containing L-glutamine. On day 2, compounds were prepared at 2 compound source concentrations: 100 μM and 1 μM (ultimately to give 2 overlapping titration curves), in a Labcyte low dead volume plate, 10 μL/well, and 10 μL of DMSO in designated wells for backfill, and 5 μM Fulvestrant (control compound) in designated wells. Compounds and controls were dispensed using a Labcyte Echo acoustic dispenser to dispense compounds with a predefined serial dilution (1.8×, 10 point, in duplicate) and appropriate backfill and control compounds (final total volume transferred was 417.5 nL and compound dispense volume ranges from 2.5 nL to 417.5 nL; 0.84% DMSO (v/v) final), ultimately producing a concentration range from 0.05 nM to 835 nM. Cell plates were incubated at 37° C., for 4 hours. Fixation and permeabilization were carried out using a Biotek EL406 plate washer and dispenser as follows. Cells were fixed by addition of 15 μL of 16% paraformaldehyde (Electron Microscopy Sciences #15710-S) directly to the 50 μL cell culture medium in each well using the peristaltic pump 5 μL cassette on a Biotek EL406 (final concentration of formaldehyde was 3.7% w/v). Samples were incubated 30 minutes. Well contents was aspirated and 50 μL/well of Phosphate Buffered Saline (PBS) containing 0.5% w/v bovine serum albumen, 0.5% v/v Triton X-100 (Antibody Dilution Buffer) was added to each well. Samples were incubated for 30 minutes. Well contents were aspirated and washed 3 times with 100 μL/well of PBS. Immunofluorescence staining of estrogen receptor alpha (ESR1) was carried out using a Biotek EL406 plate washer and dispenser as follows. The well supernatant was aspirated from the wells and 25 μL/well of anti-ESR1 mAb (F10) (Santa Cruz sc-8002) diluted 1:1000 in Antibody Dilution Buffer was dispensed. Samples were incubated for 2 hours at room temperature. Samples were washed 4 times with 100 μL/well of PBS. 25 uL/well of secondary antibody solution (Alexafluor 488 conjugate anti-mouse IgG (LifeTechnologies #A21202) diluted 1:1000 and Hoechst 33342 1 μg/ml diluted in Antibody Dilution Buffer) were dispensed into each well. Samples were incubated for 2 hours at room temperature. Samples were washed 3 times with 100 μL/well of PBS using a Biotek EL406. Quantitative fluorescence imaging of ESR1 was carried out using a Cellomics Arrayscan V (Thermo). Fluorescence images of the samples (Channel 1: XF53 Hoechst (DNA stain); Channel 2: XF53 FITC (ESR1 stain)) were acquired using a Cellomics VTI Arrayscan using the Bioapplication “Compartmental Analysis” using the auto-exposure (based on DMSO control wells) setting “peak target percentile” set to 25% target saturation for both channels. Channel 1 (DNA stain) was used to define the nuclear region (Circ). Measurements of “Mean_CircAvgIntCh2”, which is the Alexafluor 488 fluorescence intensity (ESR1) within the nuclear region, was measured on a per cell basis and averaged over all the measured cells. Data analysis was carried out using Genedata Screener Software, with DMSO and 5 nM Fulvestrant treated samples being used to define the 0% and 100% changes in ESR1. The “Robust Fit” method was used to define the inflexion point of curve (EC50) and the plateau of the maximal effect (Sinf). Degradation data for exemplary Formula I compounds is reported as ER-alpha MCF7 HCS Sinf(%) values in Table 1.

Assay [2] has as its system MCF7 cells. Nature of the assay: In vitro cell proliferation assays (Examples 902 and 903), MCF7. Particulars: Homo sapiens, MCF7, Table 1a, read-out: ER-alpha MCF7 HCS (EC50). The class given is cell-based. As for the experimental part: Efficacy of estrogen receptor modulator compounds and chemotherapeutic compounds are measured by a cell proliferation assay employing the following protocol (Mendoza et al (2002) Cancer Res. 62:5485-5488).
The CellTiter-Glo® Luminescent Cell Viability Assay is a homogeneous method to determine the number of viable cells in culture based on quantitation of the ATP present, which signals the presence of metabolically active cells. The CellTiter-Glo® Assay is designed for use with multiwell plate formats, making it ideal for automated high-throughput screening (HTS), cell proliferation and cytotoxicity assays. The homogeneous assay procedure involves adding a single reagent (CellTiter-Glo® Reagent) directly to cells cultured in serum-supplemented medium. Cell washing, removal of medium or multiple pipetting steps are not required. The Cell Titer-Glo® Luminescent Cell Viability Assay, including reagents and protocol are commercially available (Promega Corp., Madison, Wis., Technical Bulletin TB288).
The assay assesses the ability of compounds to enter cells and inhibit cell proliferation. The assay principle is based on the determination of the number of viable cells present by quantitating the ATP present in a homogenous assay where addition of the Cell TiterGlo® reagent results in cell lysis and generation of a luminescent signal through the luciferase reaction. The luminescent signal is proportional to the amount of ATP present.
Procedure: Day 1—Seed Cell Plates (384-well black, clear bottom, microclear, TC plates with lid from Falcon #353962), Harvest cells, Seed cells at 1000 cells per 54 μl per well into 384 well Cell Plates for 3 days assay. Cell Culture Medium: RPMI or DMEM high glucose, 10% Fetal Bovine Serum, 2 mM L-Glutamine, P/S. Incubate 0/N (overnight) at 37° C., 5% CO2.
Day 2—Add Drug to Cells, Compound Dilution, DMSO Plates (serial 1:2 for 9 points). Add 20 μl of compound at 10 mM in the 2nd column of 96 well plate. Perform serial 1:2 across the plate (10 μl+20 μl 100% DMSO) for a total of 9 points using Precision Media Plates 96-well conical bottom polypropylene plates from Nunc (cat.#249946) (1:50 dilution). Add 147 μl of Media into all wells. Transfer 3 μl of DMSO+compound from each well in the DMSO Plate to each corresponding well on Media Plate using Rapidplate® (Caliper, a Perkin-Elmer Co.). For 2 drug combination studies, transfer one drug 1.5 μl of DMSO+compound from each well in the DMSO Plate to each corresponding well on Media Plate using Rapidplate. Then, transfer another drug 1.5 μl to the medium plate.
Drug Addition to Cells, Cell Plate (1:10 dilution): Add 6 μl of media+compound directly to cells (54 μl of media on the cells already). Incubate 3 days at 37° C., 5% CO2 in an incubator that will not be opened often.
Day 5—Develop Plates, Thaw Cell Titer Glo Buffer at room temperature: Remove Cell Plates from 37° C. and equilibrate to room temperature for about 30 minutes. Add Cell Titer-Glo® Buffer to Cell Titer-Glo® Substrate (bottle to bottle). Add 30 μl Cell Titer-Glo® Reagent (Promega cat.# G7572) to each well of cells. Place on plate shaker for about 30 minutes. Read luminescence on Analyst HT Plate Reader (half second per well).
Cell viability assays and combination assays: Cells were seeded at 1000-2000 cells/well in 384-well plates for 16 h. On day two, nine serial 1:2 compound dilutions were made in DMSO in a 96 well plate. The compounds were further diluted into growth media using a Rapidplate® robot (Zymark Corp., Hopkinton, Mass.). The diluted compounds were then added to quadruplicate wells in 384-well cell plates and incubated at 37° C. and 5% CO2. After 4 days, relative numbers of viable cells were measured by luminescence using Cell Titer-Glo® (Promega) according to the manufacturer's instructions and read on a Wallac Multilabel Reader® (PerkinElmer, Foster City). EC50 values were calculated using Prism® 4.0 software (GraphPad, San Diego). […]

Turning to `C[C@@H]1Cc2c([nH]c3ccccc23)[C@@H](c2c(F)cc([C@H](F)C3CN(CCCF)C3)cc2F)N1CC(C)(C)F` [Compound 103, (1R,3R)-1-(2,6-difluoro-4-((R)-fluoro(1-(3-fluoropropyl)azetidin-3-yl)methyl)phenyl)-2-(2-fluoro-2-methylpropyl)-3-methyl-2,3,4,9-tetrahydro-1H-pyrido[3,4-b]indole], the “ER-alpha MCF7 HCS (S inf)” value in assay [1] was −94.25%. In assay [2], the concentration giving a half-maximal response (EC50) came out at 0.12 nM.
Consider `C[C@@H]1Cc2c([nH]c3ccccc23)[C@@H](c2c(F)cc(C(O)C3CN(CCCF)C3)cc2F)N1CC(F)(F)CO` (stereo partly drawn) [Compound 106, 3-((1R,3R)-1-(2,6-difluoro-4-((1-(3-fluoropropyl)azetidin-3-yl)(hydroxy)methyl)phenyl)-3-methyl-1,3,4,9-tetrahydro-2H-pyrido[3,4-b]indol-2-yl)-2,2-difluoropropan-1-ol], for which the “ER-alpha MCF7 HCS (S inf)” value in assay [1] is −98.3%. Moreover, the EC50 in assay [2] was found to be 0.035 nM.
Take `C[C@@H]1Cc2c([nH]c3ccccc23)[C@@H](c2c(F)cc(C(O)C3CN(CCCF)C3)cc2F)N1C[C@@](C)(F)CO` (stereo partly drawn) [Compound 107, (2R)-3-((1R,3R)-1-(2,6-difluoro-4-((1-(3-fluoropropyl)azetidin-3-yl)(hydroxy)methyl)phenyl)-3-methyl-1,3,4,9-tetrahydro-2H-pyrido[3,4-b]indol-2-yl)-2-fluoro-2-methylpropan-1-ol]: in assay [1], the “ER-alpha MCF7 HCS (S inf)” value is −94.23%. Also, in assay [2], the concentration for a half-maximal effect (EC50) amounted to 0.107 nM.
The matching figures for `C[C@@H]1Cc2c([nH]c3ccccc23)[C@@H](c2c(F)cc(C(O)C3CN(CCCF)C3)cc2F)N1C[C@](C)(F)CO` (stereo partly drawn) [Compound 108, (2S)-3-((1R,3R)-1-(2,6-difluoro-4-((1-(3-fluoropropyl)azetidin-3-yl)(hydroxy)methyl)phenyl)-3-methyl-1,3,4,9-tetrahydro-2H-pyrido[3,4-b]indol-2-yl)-2-fluoro-2-methylpropan-1-ol]: −96.34% and 0.056 nM.
In the same order, the values of `C[C@@H]1Cc2c([nH]c3ccccc23)[C@@H](c2c(F)cc(C(O)C3CN(CCCF)C3)cc2F)N1CC(F)(F)F` (stereo partly drawn) [Compound 109, (3,5-difluoro-4-((1R,3R)-3-methyl-2-(2,2,2-trifluoroethyl)-2,3,4,9-tetrahydro-1H-pyrido[3,4-b]indol-1-yl)phenyl)(1-(3-fluoropropyl)azetidin-3-yl)methanol] are −98.1% and 0.23 nM.
In the case of `C[C@@H]1Cc2c([nH]c3ccccc23)[C@@H](c2c(F)cc(C(O)C3CN(CCCF)C3)cc2F)N1CC(F)F` (stereo partly shown) [Compound 110], the “ER-alpha MCF7 HCS (S inf)” value in assay [1] is given as −98.4%. In addition, the EC50 in assay [2] amounted to 0.082 nM.
The matching figures for `C[C@@H]1Cc2c([nH]c3ccccc23)[C@@H](c2c(F)cc([C@H](O)C3CN(CCCF)C3)cc2F)N1CC(C)(C)F` [Compound 111, (R)-(3,5-difluoro-4-((1R,3R)-2-(2-fluoro-2-methylpropyl)-3-methyl-2,3,4,9-tetrahydro-1H-pyrido[3,4-b]indol-1-yl)phenyl)(1-(3-fluoropropyl)azetidin-3-yl)methanol]: −95.97% and 0.066 nM.
The matching figures for `C[C@@H]1Cc2c([nH]c3ccccc23)[C@@H](c2c(F)cc([C@@H](O)C3CN(CCCF)C3)cc2F)N1CC(C)(C)F` [Compound 112, (S)-(3,5-difluoro-4-((1R,3R)-2-(2-fluoro-2-methylpropyl)-3-methyl-2,3,4,9-tetrahydro-1H-pyrido[3,4-b]indol-1-yl)phenyl)(1-(3-fluoropropyl)azetidin-3-yl)methanol]: −99.15% and 0.05 nM.

In general, EC50 refers to the concentration needed to bring the measured effect to its halfway point.
